Reference: PMC6001238, “Iterative Chemical Engineering of Vancomycin Leads to Novel Vancomycin Analogs With a High in Vitro Therapeutic Index” (Frontiers in Microbiology, 2018)
≈ marks a conversion by molar mass, not a printed value.

Experiments:
[1] = tested on: E. faecalis VSE 1; assay: MIC, broth microdilution, vancomycin-sensitive E. faecalis (VSE 1); assay type: cell-based, Enterococcus faecalis; details: for MIC: Enterococcus faecalis VSE 1 (vancomycin-sensitive), read-out: MIC; for MIC-fold improvement vs. vancomycin: VSE 1, ratio of MIC of vancomycin and MIC of analogue
Procedure, shortened: (§1)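 Controls (ultrapure water; broth not inoculated) were included throughout CLSI-compliant broth microdilution. One condition supplemented analogue or comparator with 10 μM vancomycin, final level.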

[2] = tested on: E. faecalis VRE 6; assay: MIC, broth microdilution, vancomycin-resistant E. faecalis VRE 6 (VanA); assay type: cell-based, Enterococcus faecalis; details: for MIC: Enterococcus faecalis VRE 6 (vancomycin-resistant), read-out: MIC; for MIC-fold improvement vs. vancomycin: VRE 6, ratio of MIC of vancomycin and MIC of analogue
Procedure, shortened: as §1

[3] = tested on: E. faecalis VRE 53; assay: MIC, broth microdilution, vancomycin-resistant E. faecalis VRE 53 (VanA); assay type: cell-based, Enterococcus faecalis; details: for MIC: Enterococcus faecalis VRE 53 (vancomycin-resistant), read-out: MIC; for MIC-fold improvement vs. vancomycin: VRE 53, ratio of MIC of vancomycin and MIC of analogue
Procedure, shortened: as §1

[4] = tested on: E. faecalis VRE 29; assay: MIC, broth microdilution, vancomycin-resistant E. faecalis VRE 29 (VanA); assay type: cell-based, Enterococcus faecalis; details: for MIC: Enterococcus faecalis VRE 29 (vancomycin-resistant), read-out: MIC; for MIC-fold improvement vs. vancomycin: VRE 29, ratio of MIC of vancomycin and MIC of analogue
Procedure, shortened: as §1

[5] = tested on: E. faecalis VRE 37; assay: MIC, broth microdilution, vancomycin-resistant E. faecalis VRE 37 (VanA); assay type: cell-based, Enterococcus faecalis; details: for MIC: Enterococcus faecalis VRE 37 (vancomycin-resistant), read-out: MIC; for MIC-fold improvement vs. vancomycin: VRE 37, ratio of MIC of vancomycin and MIC of analogue
Procedure, shortened: as §1

[6] = tested on: Murine leukemia (L1210) cells; assay: Cytostatic activity, L1210 cell proliferation; assay type: cell-based; details: mean ± SD of three experiments; highest concentration tested 250 µM; 2 days; read-out: Toxicity (IC50) L1210
Procedure, shortened: (§2)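 Coulter counter cell counts after 37°C culture with compound; IC50 = concentration giving 50% growth inhibition vs negative control. Incubation: L1210 2 d, CEM 3 d, HeLa 4 d. Suspension density before mixing with an equal volume of dilution: 300,000–500,000 cells/mL.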

[7] = tested on: human T-lymphocyte (CEM) cells; assay: Cytostatic activity, CEM cell proliferation; assay type: cell-based; details: mean ± SD of three experiments; highest concentration tested 250 µM; 3 days; read-out: Toxicity (IC50) CEM
Procedure, shortened: as §2

[8] = tested on: human cervix carcinoma (HeLa) cells; assay: Cytostatic activity, HeLa cell proliferation; assay type: cell-based; details: mean ± SD of three experiments; highest concentration tested 250 µM; 4 days; read-out: Toxicity (IC50) HeLa
Procedure, shortened: as §2

[9] = tested on: L1210, CEM and HeLa cell lines; assay: Cytostatic activity, average or summary over L1210, CEM and HeLa; assay type: cell-based; details: average of L1210, CEM and HeLa; read-out: Toxicity (IC50) Average
Procedure, shortened: as §2

[10] = tested on: S. aureus VSSA (ATCC 6538); assay: MIC, broth microdilution, vancomycin-sensitive S. aureus (VSSA/MSSA, ATCC 6538); assay type: cell-based, Staphylococcus aureus; details: for MIC: Staphylococcus aureus VSSA, read-out: MIC; for MIC-fold improvement vs. vancomycin: VSSA, ratio of MIC of vancomycin and MIC of analogue
Procedure, shortened: as §1

[11] = tested on: S. aureus VISA/HIP5827; assay: MIC, broth microdilution, vancomycin-intermediate S. aureus VISA HIP5827; assay type: cell-based, Staphylococcus aureus; details: for MIC: Staphylococcus aureus VISA/HIP5827, read-out: MIC; for MIC-fold improvement vs. vancomycin: VISA/HIP5827, ratio of MIC of vancomycin and MIC of analogue
Procedure, shortened: as §1

[12] = tested on: S. aureus VRSA; assay: MIC, broth microdilution, vancomycin-resistant S. aureus (VRSA); assay type: cell-based, Staphylococcus aureus; details: for MIC: Staphylococcus aureus VRSA, read-out: MIC; for MIC-fold improvement vs. vancomycin: VRSA, ratio of MIC of vancomycin and MIC of analogue
Procedure, shortened: as §1

[13] = tested on: MRSA KS2; assay: MIC, broth microdilution, MRSA KS2; assay type: cell-based, Staphylococcus aureus; details: for MIC-fold improvement vs. vancomycin: MRSA KS2, ratio of MIC of vancomycin and MIC of analogue; for MIC: Staphylococcus aureus MRSA KS2, read-out: MIC
Procedure, shortened: as §1

[14] = tested on: MRSA KS6; assay: MIC, broth microdilution, MRSA KS6; assay type: cell-based, Staphylococcus aureus; details: for MIC-fold improvement vs. vancomycin: MRSA KS6, ratio of MIC of vancomycin and MIC of analogue; for MIC: Staphylococcus aureus MRSA KS6, read-out: MIC
Procedure, shortened: as §1

[15] = tested on: MRSA KS89; assay: MIC, broth microdilution, MRSA KS89; assay type: cell-based, Staphylococcus aureus; details: for MIC-fold improvement vs. vancomycin: MRSA KS8, ratio of MIC of vancomycin and MIC of analogue; for MIC: Staphylococcus aureus MRSA KS8, read-out: MIC
Procedure, shortened: as §1

[16] = tested on: MRSA KS1; assay: MIC, broth microdilution, MRSA KS1; assay type: cell-based, Staphylococcus aureus; details: for MIC-fold improvement vs. vancomycin: MRSA KS1, ratio of MIC of vancomycin and MIC of analogue; for MIC: Staphylococcus aureus MRSA KS1, read-out: MIC
Procedure, shortened: as §1

Compound: CNC(CC(C)C)C(=O)NC1C(=O)NC(CC(N)=O)C(=O)NC2C(=O)NC3C(=O)NC(C(=O)NC(C(=O)NCCCNC(=O)c4ccc(C(F)(F)F)cc4)c4cc(O)cc(O)c4-c4cc3ccc4O)C(O)c3ccc(c(Cl)c3)Oc3cc2cc(c3OC2OC(CO)C(O)C(O)C2OC2CC(C)(N)C(O)C(C)O2)Oc2ccc(cc2Cl)C1O (stereo not drawn) [Vanc-32]
- MIC [1]: 0.39 µM (≈ 0.654 µg/mL)
- MIC-fold improvement vs. vancomycin [1]: 4
- MIC [2]: 3.13 µM (≈ 5.25 µg/mL)
- MIC-fold improvement vs. vancomycin [2]: 64
- MIC [3]: 50 µM (≈ 83.9 µg/mL)
- MIC-fold improvement vs. vancomycin [3]: 8
- MIC [4]: 12.5 µM (≈ 21 µg/mL)
- MIC-fold improvement vs. vancomycin [4]: 32
- MIC [5]: 25 µM (≈ 41.9 µg/mL)
- MIC-fold improvement vs. vancomycin [5]: 16
- IC50 [6]: 164 ± 46 µM
- IC50 [7]: 200 ± 12 µM
- IC50 [8]: 106 ± 2 µM
- IC50 [9]: 157 µM
- MIC [10]: 0.78 µM (≈ 1.31 µg/mL)
- MIC-fold improvement vs. vancomycin [10]: 1
- MIC [11]: 0.78 µM (≈ 1.31 µg/mL)
- MIC-fold improvement vs. vancomycin [11]: 8
- MIC [12]: 6.25 µM (≈ 10.5 µg/mL)
- MIC-fold improvement vs. vancomycin [12]: 16
- MIC-fold improvement vs. vancomycin [13]: 2
- MIC [13]: 0.39 µM (≈ 0.654 µg/mL)
- MIC-fold improvement vs. vancomycin [14]: 2
- MIC [14]: 0.39 µM (≈ 0.654 µg/mL)
- MIC-fold improvement vs. vancomycin [15]: 2
- MIC [15]: 0.39 µM (≈ 0.654 µg/mL)
- MIC-fold improvement vs. vancomycin [16]: 2
- MIC [16]: 0.39 µM (≈ 0.654 µg/mL)

Compound: CCCCCCc1ccc(NC(=O)CNC(=O)[C@H]2NC(=O)[C@H]3NC(=O)[C@H](NC(=O)[C@@H]4NC(=O)[C@H](CC(N)=O)NC(=O)[C@H](NC(=O)[C@@H](CC(C)C)NC)[C@H](O)c5ccc(c(Cl)c5)Oc5cc4cc(c5O[C@@H]4O[C@H](CO)[C@@H](O)[C@H](O)[C@H]4O[C@H]4C[C@](C)(N)[C@H](O)[C@H](C)O4)Oc4ccc(cc4Cl)[C@H]3O)c3ccc(O)c(c3)-c3c(O)cc(O)cc32)cc1 [Vanc-75]
- MIC [1]: 0.78 µM (≈ 1.3 µg/mL)
- MIC-fold improvement vs. vancomycin [1]: 2
- MIC [2]: 3.13 µM (≈ 5.21 µg/mL)
- MIC-fold improvement vs. vancomycin [2]: 64
- MIC [3]: 3.13 µM (≈ 5.21 µg/mL)
- MIC-fold improvement vs. vancomycin [3]: 128
- MIC [4]: 3.13 µM (≈ 5.21 µg/mL)
- MIC-fold improvement vs. vancomycin [4]: 128
- MIC [5]: 3.13 µM (≈ 5.21 µg/mL)
- MIC-fold improvement vs. vancomycin [5]: 128
- IC50 [6]: 17 ± 7 µM
- IC50 [7]: 15 ± 3 µM
- IC50 [8]: 83 ± 4 µM
- IC50 [9]: 38 µM
- MIC [10]: 0.78 µM (≈ 1.3 µg/mL)
- MIC-fold improvement vs. vancomycin [10]: 1
- MIC [11]: 0.78 µM (≈ 1.3 µg/mL)
- MIC-fold improvement vs. vancomycin [11]: 8
- MIC [12]: 1.56 µM (≈ 2.6 µg/mL)
- MIC-fold improvement vs. vancomycin [12]: 64
- MIC-fold improvement vs. vancomycin [13]: 4
- MIC [13]: 0.20 µM (≈ 0.333 µg/mL)
- MIC-fold improvement vs. vancomycin [14]: 2
- MIC [14]: 0.39 µM (≈ 0.65 µg/mL)
- MIC-fold improvement vs. vancomycin [15]: 4
- MIC [15]: 0.20 µM (≈ 0.333 µg/mL)
- MIC-fold improvement vs. vancomycin [16]: 4
- MIC [16]: 0.20 µM (≈ 0.333 µg/mL)

Compound: CN[C@H](CC(C)C)C(=O)N[C@H]1C(=O)N[C@@H](CC(N)=O)C(=O)N[C@H]2C(=O)N[C@H]3C(=O)N[C@H](C(=O)N[C@H](C(=O)NCCNC(=O)/C=C/c4cccc(OC)c4)c4cc(O)cc(O)c4-c4cc3ccc4O)[C@H](O)c3ccc(c(Cl)c3)Oc3cc2cc(c3O[C@@H]2O[C@H](CO)[C@@H](O)[C@H](O)[C@H]2O[C@H]2C[C@](C)(N)[C@H](O)[C@H](C)O2)Oc2ccc(cc2Cl)[C@H]1O [Vanc-23]
- MIC [1]: 0.39 µM (≈ 0.644 µg/mL)
- MIC-fold improvement vs. vancomycin [1]: 4
- MIC [2]: 3.13 µM (≈ 5.17 µg/mL)
- MIC-fold improvement vs. vancomycin [2]: 64
- MIC [3]: 25 µM (≈ 41.3 µg/mL)
- MIC-fold improvement vs. vancomycin [3]: 16
- MIC [4]: 12.5 µM (≈ 20.6 µg/mL)
- MIC-fold improvement vs. vancomycin [4]: 32
- MIC [5]: 25 µM (≈ 41.3 µg/mL)
- MIC-fold improvement vs. vancomycin [5]: 16
- IC50 [6]: > 250 µM
- IC50 [7]: > 250 µM
- IC50 [8]: > 250 µM
- IC50 [9]: > 250 µM
- MIC [10]: 0.39 µM (≈ 0.644 µg/mL)
- MIC-fold improvement vs. vancomycin [10]: 2
- MIC [11]: 0.78 µM (≈ 1.29 µg/mL)
- MIC-fold improvement vs. vancomycin [11]: 8
- MIC [12]: 6.25 µM (≈ 10.3 µg/mL)
- MIC-fold improvement vs. vancomycin [12]: 16
- MIC-fold improvement vs. vancomycin [13]: 2
- MIC [13]: 0.39 µM (≈ 0.644 µg/mL)
- MIC-fold improvement vs. vancomycin [14]: 1
- MIC [14]: 0.78 µM (≈ 1.29 µg/mL)
- MIC-fold improvement vs. vancomycin [15]: 1
- MIC [15]: 0.78 µM (≈ 1.29 µg/mL)
- MIC-fold improvement vs. vancomycin [16]: 1
- MIC [16]: 0.78 µM (≈ 1.29 µg/mL)
